{"source": "patent US12023330B2", "about": "“Use of manzamines as antiproliferative agent” (priority 2020, dated 2024)", "type_in_all_cases": "cell-based, human", "key": {"[1]": {"test_system": "p53, p21, cyclin D1, total Rb, phospho-Rb", "assay": "Protein expression analysis of cell cycle regulatory proteins", "conditions": "2 and 4 μM, 48 h", "from_the_text": "Molecular Targets of Manzamine A (1). HeLa, SiHa and CaSki cell lines represent the most common form of cervical cancer infected by the HPV type 16 (SiHa and CaSki) and 18 (HeLa). Cervical cancer is primarily aggravated by the sustained expression of HPV-derived E6 and E7 oncogenes utilizing distinct mechanisms that affect cell-cycle checkpoints. For instance, E6 promotes p53 degradation, while E7 is associated with phosphorylation of retinoblastoma (Rb) proteins. See (22) Huh, K.; Zhou, X.; Hayakawa, H.; Cho, J. Y.; Libermann, T. A.; Jin, J.; Harper, J. W.; Munger, K. J. Virol. 2007, 81, 9737-9747 and Talis, A. L.; Huibregtse, J. M.; Howley, P. M. J. Biol. Chem. 1998, 273, 6439-6445. Both p53 and Rb are tumor suppressor genes and play a critical role in maintaining cell cycle regulation. Additionally, interaction of cyclin D1 with Rb protein and their expression levels correlate positively in association with tumorigenesis. Therefore, we sought to examine the molecular targets of manzamine A leading to anti-cancer activity in cervical cancer. […] Following the overnight attachment of 1×10^6 cells/well, the cells were treated with manzamine A (1) at 2 and 4 μM concentrations and incubated for 48 h. Cell lysates were prepared for protein analysis. […] However, detailed mechanistic studies of manzamine A determining anti-cancer effect are required to further substantiate these observations.\nProtein Expression Analysis. C33A, HeLa, SiHa and CaSki cells were seeded at a density of 1×10^6 cells/100 mm petri dish. The next day, the cells were treated with 2 μM or 4 μM concentrations of manzamine A (1) or with 10, 20, or 40 μM concentrations with apigenin (Sigma, MO) and incubated for 48 hours. At the given time-point, the cells were harvested by trypsinization, washed with PBS, and lysed using radioimmunoprecipitation assay (RIPA) buffer containing a cocktail of protease inhibitors (Sigma, MO) to extract protein. Following quantification by colorimetric assay (Bio-Rad), equal amount of protein was loaded on to SDS-polyacrylamide gel and transferred to polyvinylidene difluoride (PVDF) membrane, which was blocked in 5% non-fat dry milk in tris-buffered saline with tween-20 (TBST) and incubated with primary antibody against p53, p21, Cyclin D1, SIX1, GAPDH (Cell signaling) or CK2α (R&D Systems) at a 1:500 dilution. For total CK2a, Rb and pRb, the blocking and antibody dilutions were made in 3% bovine serum albumin (BSA). The membrane was washed with TBST and incubated with secondary IgG HRP conjugate at 1:2000 dilution. The specific band of the protein was visualized with chemiluminescence reagent exposed onto BioMax Film (Kodak) and ChemoDoc-it^2 imager (UVP)."}, "[2]": {"test_system": "CaSki cells", "assay": "CellTiter-Glo cell viability assay", "procedure": "(§1) Biological Effect of Marine Sponge Natural Product Manzamine A on Cervical Cancer Cell Growth. We determined the biological activity of manzamine A on cervical cancer cells C33A (HPV-negative), HeLa, SiHa, and CaSki (HPV16/18-positive) using a wide range of concentrations (0-40 μM) at different time points (24, 48 and 72 hours). The CellTiter-Glo cell viability assay determined the cell viability based on metabolically active cells producing ATP in the cell culture. […] Twenty thousand (2×10^4) cells were seeded in ninety-six well plates and treated with a wide range of 1 μM to 40 μM concentration of manzamine A for three time points (24, 48 and 72 h). The experiment was repeated at least three times in quadruplicates from different cell preparations with similar results. Percent viable cells were used to calculate IC50 values and are shown in the inset for all the cell lines at their respective time-points. The percent viability values represent standard error from the mean (mean±SE).\n(§2) Cell Culture. Human cervical cancer cell lines C33A, HeLa, SiHa, and CaSki were purchased from the American Type Culture Collection (ATCC, Manassas, VA). Cells were grown in Dulbecco's Modified Eagle Medium (DMEM) medium supplemented with 10% fetal bovine serum, 2 mM L-glutamine, 100 U/ml of penicillin-streptomycin, and maintained at 37° C. with 5% CO2 in a humidified incubator.\n(§3) Cell Viability Assay. Cell viability was measured by using Cell Titer-Glo Luminescent Cell Viability Assay Kit (Promega, Leiden, Netherlands) according to the manufacturer's instructions. Briefly, 2×10^4 cells were seeded in 96 well plates. Next day, cells were treated with different concentrations of MA (0-40 μM) for 24, 48 and 72 hours. Percent viability was calculated using the formula: percent (%) viability=100×(Treatment/Control). The IC50 value was calculated from the dose responsive sigmoid curve generated from % viability using GrpaphPad Prism 7 software."}, "[3]": {"test_system": "C33A cells", "assay": "CellTiter-Glo cell viability assay", "procedure": "as §1, §2, §3"}, "[4]": {"test_system": "HeLa cells", "assay": "CellTiter-Glo cell viability assay", "procedure": "as §1, §2, §3"}, "[5]": {"test_system": "cervical cancer cell lines", "assay": "Colony formation assay", "conditions": "2 and 4 μM; one week", "procedure": "To maintain the treatment uniformity across the cell lines, we selected optimal dose concentration of 1 to 4 μM, and treated C33A, HeLa, SiHa and CaSki cell lines.\nColony Formation Assay. Cancer cell lines were seeded at a density of 1×10^3 cells/ml in 6-well plates. Following overnight incubation, the cells were treated with manzamine A (1) (2 μM and 4 μM) and incubated in a tissue culture incubator at 37° C. with 5% CO2. After one week, the developed cell colonies were fixed with 4% paraformaldehyde, stained with 0.5% crystal violet, and were photographed."}}, "data": [{"smiles": "O[C@]12C=C(c3nccc4c3[nH]c3ccccc34)[C@@H]3CCN(CCCC/C=C\\CC1)C[C@@]31C[C@@H]3/C=C\\CCCCN3[C@H]12", "note": "[manzamine A]", "values": [{"measurement": "p21 protein level", "setting": "[1]; C33A", "value": "not-detectable"}, {"measurement": "p53 protein level", "setting": "[1]; C33A", "value": "did not show any change"}, {"measurement": "p21 level", "setting": "[1]; HeLa", "value": "remains unchanged"}, {"measurement": "p53 level", "setting": "[1]; HeLa", "value": "marginal increase"}, {"measurement": "cyclin D1, total Rb, and phospho-Rb protein level", "setting": "[1]; SiHa and CaSki", "value": "inhibition"}, {"measurement": "p53 and p21 protein level", "setting": "[1]; SiHa and CaSki", "value": "increase"}, {"measurement": "IC50", "setting": "[2]; 48 hours", "value": 19.9, "unit": "µM"}, {"measurement": "IC50", "setting": "[2]; 72 hours", "value": 9.4, "unit": "µM"}, {"measurement": "IC50", "setting": "[3]; 48 hours", "value": 2.1, "unit": "µM"}, {"measurement": "IC50", "setting": "[3]; 72 hours", "value": 1.6, "unit": "µM"}, {"measurement": "IC50", "setting": "[4]; 48 hours", "value": 4, "unit": "µM"}, {"measurement": "IC50", "setting": "[4]; 72 hours", "value": 5.3, "unit": "µM"}, {"measurement": "colony formation (long-term cell growth)", "setting": "[5]", "value": "inhibited the cell growth"}]}]}
